In patent US8680159B2, “Bradykinin 1 receptor modulating compounds” (Gruenenthal GmbH, priority 2010, dated 2014) one finds inhibition data, which are given here for 20 compounds.

For assay [1], the target named is T1, human B1R receptor (CHO K1 cells stably transfected with the human B1R gene) (Homo sapiens, UniProt P46663).
T1 construct: expressed in transfected cells; host or cells: CHO K1 cells (Chinese hamster ovary), stably transfected
T1 sequence (P46663 1-353): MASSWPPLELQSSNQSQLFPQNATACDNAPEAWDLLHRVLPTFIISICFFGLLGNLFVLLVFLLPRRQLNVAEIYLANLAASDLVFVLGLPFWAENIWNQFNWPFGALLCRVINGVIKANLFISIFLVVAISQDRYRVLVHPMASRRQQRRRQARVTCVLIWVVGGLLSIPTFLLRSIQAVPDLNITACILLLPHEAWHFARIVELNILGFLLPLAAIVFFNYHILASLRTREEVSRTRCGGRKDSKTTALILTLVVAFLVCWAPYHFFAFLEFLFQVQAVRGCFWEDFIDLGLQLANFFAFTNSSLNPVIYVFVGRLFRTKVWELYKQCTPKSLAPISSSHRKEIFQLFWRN
Kind of assay: Functional study on the bradykinin receptor 1 (B1R), Ca2+ fluorescence (Fluo-4) FLIPR/Novostar assay, hB1R cells. The format is cell-based. Put shortly: (§1)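 Stably transfected CHO K1 cells carrying human or rat B1R were Fluo-4 loaded and Ca2+ fluorescence read by FLIPR or Novostar. Compounds were added first at 10 μM for % activation, then the EC80 agonist was applied after 6-20 min (human: Lys-Des-Arg9-bradykinin; rat: Des-Arg9-bradykinin). % inhibition is relative to maximum achievable inhibition, and IC50 comes from concentration series.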

Assay [2] addresses T2, B1R receptor of the rat (CHO K1 cells stably transfected with the B1R gene of the rat) (Rattus norvegicus, UniProt P97583).
T2 construct: expressed in transfected cells; host or cells: CHO K1 cells (Chinese hamster ovary), stably transfected
T2 sequence (P97583 1-337): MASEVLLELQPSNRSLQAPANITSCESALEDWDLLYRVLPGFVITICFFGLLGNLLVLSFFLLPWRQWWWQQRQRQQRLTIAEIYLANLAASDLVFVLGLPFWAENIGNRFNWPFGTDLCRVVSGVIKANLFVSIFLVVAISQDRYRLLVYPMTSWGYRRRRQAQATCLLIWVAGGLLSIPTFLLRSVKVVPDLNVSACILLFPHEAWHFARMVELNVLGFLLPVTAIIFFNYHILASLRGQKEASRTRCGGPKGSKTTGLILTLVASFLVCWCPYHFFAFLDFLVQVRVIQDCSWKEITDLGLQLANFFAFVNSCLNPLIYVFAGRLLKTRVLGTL
Kind of assay: Functional study on the bradykinin receptor 1 (B1R), Ca2+ fluorescence (Fluo-4) FLIPR/Novostar assay, rB1R cells. As to conditions: CHO-K1, 10 μM. The format is cell-based. Put shortly: as §1

Setting [3] is: CHO-K1, read-out: % inhibition (human B1R) at 10 μM.
[4] abbreviates: read-out: % inhibition (rat B1R) at 10 μM.
[5] abbreviates: CHO-K1, read-out: % Inhibition (h-B1R) at 10 μM.
The mark [6] stands for this setting: read-out: % Inhibition (r-B1R) at 10 μM.

Read-outs that look alike come from different tables or passages of the source.

Broadly, the inhibition is the change of the read-out against control, counted positive when it falls. For the compound `CN(C(=O)c1ccc2c(c1)[C@H](NC(=O)c1ccccc1Cl)CC2)C1CCN(c2ccccn2)CC1` [Example H-23, (3R)-3-[(2-Chloro-benzoyl)amino]-N-methyl-N-(1-pyridin-2-yl-piperidin-4-yl)-2,3-dihydro-1H-indene-5-carboxylic acid amide], the figures for the inhibition at 10 µM in assay [1] (setting [3]) and in assay [2] (setting [4]) were 97% and 93%, respectively.
As to `CN(C(=O)c1ccc2c(c1)C(N(C)C(=O)c1sccc1Cl)CC2)C1CCN(c2ccncc2)CC1` (stereo not shown) [CC_H-30, 3-Chloro-N-methyl-N-[6-[methyl-(1-pyridin-4-yl-piperidin-4-yl)-carbamoyl]-2,3-dihydro-1H-inden-1-yl]-thiophene-2-carboxylic acid amide], the figures for the inhibition at 10 µM in assay [1] (setting [5]) and in assay [2] (setting [6]) were 99% and 104%, respectively.
Regarding `O=C(N[C@@H]1CCc2ccc(C(=O)N(C3CC3)C3CCN(c4ccncc4)CC3)cc21)c1ccccc1Cl` [Example H-38, (3R)-3-[(2-Chloro-benzoyl)amino]-N-cyclopropyl-N-(1-pyridin-4-yl-piperidin-4-yl)-2,3-dihydro-1H-indene-5-carboxylic acid amide], the inhibition at 10 µM amounted to 100% in assay [1] (setting [3]) and 103% in assay [2] (setting [4]).
The matching figures for `Cc1cc(N2CCC(N(C)C(=O)c3ccc4c(c3)[C@H](NC(=O)c3ccccc3Cl)CC4)CC2)ccn1` [Example H-55, (3R)-3-[(2-Chloro-benzoyl)amino]-N-methyl-N-[1-(2-methyl-pyridin-4-yl)-piperidin-4-yl]-2,3-dihydro-1H-indene-5-carboxylic acid amide]: 99% and 104%.
The like results for `CN(C(=O)c1ccc2c(c1)[C@H](NC(=O)c1ccccc1)CC2)C1CCN(c2ccncc2)CC1` [Example H-71, (3R)-3-Benzoylamino-N-methyl-N-(1-pyridin-4-yl-piperidin-4-yl)-2,3-dihydro-1H-indene-5-carboxylic acid amide] were, in that order, 100% and 99%.
Regarding `Cc1cc(N2CCC(N(C)C(=O)c3ccc4c(c3)[C@H](NC(=O)CCC3CCCC3)CC4)CC2)ccn1` [Example H-93, (3R)-3-(3-Cyclopentyl-propanoylamino)-N-methyl-N-[1-(2-methyl-pyridin-4-yl)-piperidin-4-yl]-2,3-dihydro-1H-indene-5-carboxylic acid amide], the inhibition at 10 µM in assay [1] (setting [3]) was 100%; in assay [2] (setting [4]), 103%.
As to `CN(C(=O)c1ccc2c(c1)CC[C@H]2N1Cc2cccc(Cl)c2C1=O)C1CCN(Cc2ccncc2)CC1` [Example H-27, (1R)-1-(4-Chloro-3-oxo-1,2-dihydro-isoindol-2-yl)-N-methyl-N-[1-(pyridin-4-yl-methyl)-piperidin-4-yl]-2,3-dihydro-1H-indene-5-carboxylic acid amide], the inhibition at 10 µM in assay [1] (setting [3]) stood at 74%; in assay [2] (setting [4]), 11%.
Take `CN(C(=O)c1ccc2c(c1)C(N(C(=O)c1ccccc1Cl)C(C)(C)C)CC2)C1CCN(c2ccncc2)CC1` (stereo not shown) [Example H-110, 3-[tert-Butyl-(2-chloro-benzoyl)-amino]-N-methyl-N-(1-pyridin-4-yl-piperidin-4-yl)-2,3-dihydro-1H-indene-5-carboxylic acid amide]: the figures for the inhibition at 10 µM in assay [1] (setting [3]) and in assay [2] (setting [4]) were 23% and 26%, respectively.
The like results for `Cc1cc(N2CCC(CCNC(=O)c3ccc4c(c3)[C@H](NC(=O)c3ccccc3Cl)CC4)CC2)ccn1` [Example H-56, (3R)-3-[(2-Chloro-benzoyl)amino]-N-[2-[1-(2-methyl-pyridin-4-yl)-piperidin-4-yl]-ethyl]-2,3-dihydro-1H-indene-5-carboxylic acid amide] were, in that order, 99% and 102%.
For `Cc1cc(N2CCC(N(C)C(=O)c3ccc4c(c3)[C@H](NC(=O)c3ccccc3Cl)CC4)CC2)nc(C(C)C)n1` [Example H-139, (3R)-3-[(2-Chloro-benzoyl)amino]-N-[1-(2-isopropyl-6-methyl-pyrimidin-4-yl)-piperidin-4-yl]-N-methyl-2,3-dihydro-1H-indene-5-carboxylic acid amide], the results for the inhibition at 10 µM in assay [1] (setting [3]) and in assay [2] (setting [4]) were 100% and 97%, respectively.
The like results for `CN1CCN(C(=O)CN2CCC(N(C)C(=O)c3ccc4c(c3)[C@H](NC(=O)c3ccccc3Cl)CC4)CC2)CC1` [Example H-138, (3R)-3-[(2-Chloro-benzoyl)amino]-N-methyl-N-[1-[2-(4-methyl-piperazin-l-yl)-2-oxo-ethyl]-piperidin-4-yl]-2,3-dihydro-1H-indene-5-carboxylic acid amide] were, in that order, 91% and 41%.
The matching figures for `Cc1cc(N2CCC(N(C)C(=O)c3cc4c(cc3F)[C@H](NC(=O)c3cc(C)on3)CC4)CC2)nc(C)n1` [Example H-143, N-[(1R)-5-[[1-(2,6-Dimethyl-pyrimidin-4-yl)-piperidin-4-yl]-methyl-carbamoyl]-6-fluoro-2,3-dihydro-1H-inden-1-yl]-5-methyl-isoxazole-3-carboxylic acid amide]: 98% and 31%.
The like results for `Cc1cc(N2CCC(N(C)C(=O)c3ccc4c(c3)[C@H](NC(=O)CC(C)C)CC4)CC2)ccn1` [Example H-85, (3R)-N-Methyl-3-(3-methyl-butanoylamino)-N-[1-(2-methyl-pyridin-4-yl)-piperidin-4-yl]-2,3-dihydro-1H-indene-5-carboxylic acid amide] were, in that order, 100% and 103%.
With `CN(C(=O)c1ccc2c(c1)[C@H](NC(=O)C1(c3ccccc3Cl)CC1)CC2)C1CCN(c2ccncc2)CC1` [Example H-51, (3R)-3-[[1-(2-Chlorophenyl)-cyclopropanecarbonyl]amino]-N-methyl-N-(1-pyridin-4-yl-piperidin-4-yl)-2,3-dihydro-1H-indene-5-carboxylic acid amide], the inhibition at 10 µM is 99% in assay [1] (setting [3]) and 105% in assay [2] (setting [4]).
`CN(C(=O)c1ccc2c(c1)C(NC(=O)c1ccccc1Cl)CC2(C)C)C1CCN(c2ccncc2)CC1` (stereo not shown) [CC_H-23, 3-[(2-Chloro-benzoyl)amino]-N,1,1-trimethyl-N-(1-pyridin-4-yl-piperidin-4-yl)-2,3-dihydro-indene-5-carboxylic acid amide]: the inhibition at 10 µM was 99% in assay [1] (setting [5]) and 104% in assay [2] (setting [6]).
Turning to `Cc1cc(N2CCC(N(C)C(=O)c3cc4c(cc3F)[C@H](N3Cc5cccc(Cl)c5C3=O)CC4)CC2)nc(C)n1` [Example H-142, (1R)-1-(4-Chloro-3-oxo-1,2-dihydro-isoindol-2-yl)-N-[1-(2,6-dimethyl-pyrimidin-4-yl)-piperidin-4-yl]-6-fluoro-N-methyl-2,3-dihydro-1H-indene-5-carboxylic acid amide], the inhibition at 10 µM in assay [1] (setting [3]) worked out at 99%; in assay [2] (setting [4]), 98%.
For the compound `CN(C)c1nccc(N2CCC(N(C)C(=O)c3ccc4c(c3)[C@H](N(C)C(=O)CCC3CCCC3)CC4)CC2)n1` [Example H-186, (3R)-3-(3-Cyclopentyl-propanoyl-methyl-amino)-N-[1-(2-dimethylamino-pyrimidin-4-yl)-piperidin-4-yl]-N-methyl-2,3-dihydro-1H-indene-5-carboxylic acid amide], the inhibition at 10 µM is 99% in assay [1] (setting [3]) and 103% in assay [2] (setting [4]).
The like results for `Cc1cc(N2CCC(N(C)C(=O)c3ccc4c(c3)[C@H](NC(=O)c3ccc(F)cc3Cl)CC4)CC2)nc(C)n1` [Example H-165, (3R)-3-[(2-Chloro-4-fluoro-benzoyl)amino]-N-[1-(2,6-dimethyl-pyrimidin-4-yl)-piperidin-4-yl]-N-methyl-2,3-dihydro-1H-indene-5-carboxylic acid amide] were, in that order, 100% and 105%.
The like results for `CN(C(=O)c1ccc2c(c1)[C@H](N(C)C(=O)c1ccccc1Cl)CC2)C1CCN(c2ccncn2)CC1` [Example H-148, (3R)-3-[(2-Chloro-benzoyl)-methyl-amino]-N-methyl-N-(1-pyrimidin-4-yl-piperidin-4-yl)-2,3-dihydro-1H-indene-5-carboxylic acid amide] were, in that order, 89% and 99%.
Regarding `CN(C(=O)c1ccc2c(c1)CCC2NC(=O)c1cc(F)ccc1Cl)C1CCN(c2ccncc2)CC1` (stereo not shown) [CC_H-64, 1-[(2-Chloro-5-fluoro-benzoyl)amino]-N-methyl-N-(1-pyridin-4-yl-piperidin-4-yl)-2,3-dihydro-1H-indene-5-carboxylic acid amide], the results for the inhibition at 10 µM in assay [1] (setting [5]) and in assay [2] (setting [6]) were 100% and 87%, respectively.
